Common to all, as to type: biochemical
One experiment addresses T1, unphosphorylated HGFR (Homo sapiens, UniProt P08581).
T1 construct: The cDNA corresponding to residues 1051-1349 of the HGFR kinase catalytic domain (HGFRkd) was cloned into a pFastBac plasmid; added N-terminal methionine (start codon of the NcoI site) (N); made in house; host or cells: Sf9 insect cells, recombinant baculovirus (pFastBac-NcoI)
The experiment can be described thus: Coupled enzymatic (PK/LDH) kinase assay, unphosphorylated HGFR. The protocol:
(§1) A coupled enzymatic assay format was used to measure both HGFR and phospho-HGFR(PHGFR) activities. The kinase-catalyzed production of ADP from ATP that accompanies phosphate transfer to the random copolymer poly(Glu4Tyr) or peptide substrate was coupled to the oxidation of NADH through the activities of pyruvate kinase (PK) and lactate dehydrogenase (LDH). NADH conversion to NAD^+ was monitored by the decrease in absorbance at 340 nm (ε=6.22 cm^−1 mM^−1) using a Beckman DU650 spectrophotometer. A typical reaction solution contained 1 mM phosphoenolpyruvate, 0.24 mM NADH, 40 mM MgCl2, 5 mM DTT, poly(Glu4Tyr), ATP, 15 units/mL PK, 15 units/mL LDH in 100 mM HEPES, pH 7.5. ATP was varied from 0.5 to 2000 μM and poly(Glu4Tyr) was varied from 0.5 to 20 mg/mL. In addition, Met2 peptide (0-4 mM) could be used instead of poly(Glu4Tyr). Assays were initiated with the addition of 12 nM phosphorylated HGFR or 125 nM unphosphorylated HGFR. Inhibition studies were performed as described above with following exceptions: 0.075 mM ATP (PHGFR) and 0.375 mM ATP (HGFR). Data was fit to the equation for competitive inhibition by the method of nonlinear least squares (KaleidaGraph).
The kinetic consequences of the autophosphorylation were investigated. HGFR and pHGFR activities were evaluated in two distinct and complementing assay formats. […] NADH conversion to NAD^+ was monitored spectrophotometrically by the decrease in absorbance at 340 nm (ε=6.22 cm^−1 mM^−1). […]
(§2) Inhibition of HGFR and pHGFR were monitored in two distinct assay formats to insure valid results. The coupled, enzymatic format (CE) was a continuous assay that measured ADP production through the sequential action of two standard coupling enzymes (pyruvate kinase and lactate dehydrogenase). The radioactive assay format was a discontinuous assay that measured phospho-protein production directly. […]
(§3) The coupled enzymatic analysis of HGFR processing of ATP and poly(Glu4Tyr) were measured at 37° C. Variable substrate concentration was measured at a fixed saturating concentration of the other substrate.

In experiment [1] the target is T2, phosphorylated HGFR (pHGFR) (Homo sapiens, UniProt P08581).
T2 construct: The cDNA corresponding to residues 1051-1349 of the HGFR kinase catalytic domain (HGFRkd) was cloned into a pFastBac plasmid; added N-terminal methionine (start codon of the NcoI site) (N); made in house; host or cells: Sf9 insect cells, recombinant baculovirus; then autophosphorylated in vitro with MgATP
T2 sequence (P08581 1051-1349): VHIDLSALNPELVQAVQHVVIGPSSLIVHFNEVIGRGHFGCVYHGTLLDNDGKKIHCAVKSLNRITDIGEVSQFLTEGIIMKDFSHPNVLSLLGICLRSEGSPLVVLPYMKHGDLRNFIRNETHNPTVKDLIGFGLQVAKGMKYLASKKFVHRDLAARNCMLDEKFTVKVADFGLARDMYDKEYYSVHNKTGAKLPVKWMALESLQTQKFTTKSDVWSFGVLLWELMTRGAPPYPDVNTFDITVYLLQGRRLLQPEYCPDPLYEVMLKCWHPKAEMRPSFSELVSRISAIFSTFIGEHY
Nature of the experiment: Coupled enzymatic (PK/LDH) kinase assay, phospho-HGFR. The method, then: as §1
(§4) The kinetic consequences of the autophosphorylation were investigated. HGFR and pHGFR activities were evaluated in two distinct and complementing assay formats. […] A coupled, enzymatic assay format (CE format) was used to measure ADP production. HGFR-catalyzed production of ADP from ATP that accompanied phosphate transfer to the random copolymer poly(Glu4Tyr) was coupled to the oxidation of NADH through the sequential activities of pyruvate kinase (PK) and lactate dehydrogenase (LDH). NADH conversion to NAD^+ was monitored spectrophotometrically by the decrease in absorbance at 340 nm (ε=6.22 cm^−1 mM^−1). A second assay format was used to measure the production of [^32P]-labeled phospho-protein (dephosphorylated α-casein). Dephosphorylated α-casein is the substrate for HGFR […] in a glass fiber filterplate assay format. […]
as §2, §3

Another experiment concerns the target T3, pHGFR (Homo sapiens, UniProt P08581).
T3 construct: The cDNA corresponding to residues 1051-1349 of the HGFR kinase catalytic domain (HGFRkd) was cloned into a pFastBac plasmid; added N-terminal methionine (start codon of the NcoI site) (N); made in house; host or cells: Sf9 insect cells, recombinant baculovirus; then autophosphorylated in vitro with MgATP
The experiment can be described thus: Radioactive glass fiber filterplate assay (32P transfer to dephosphorylated α-casein). The method, then:
as §4, §2

The mark [2] stands for this setting: coupled enzymatic analysis, 37° C., other substrate fixed saturating.

The structures appear in SMILES notation.

T1 sequence (P08581 1051-1349): as above
T3 sequence (P08581 1051-1349): as above

In the case of `Nc1ncnc2c1ncn2[C@@H]1O[C@H](COP(=O)(O)OP(=O)([O-])OP(=O)([O-])O)[C@@H](O)[C@H]1O.[Mg+2]` [MgATP, ATP], the Km – broadly, the substrate concentration at which the rate is half of its maximum – was determined as 373 ± 61 µM on unphosphorylated HGFR (setting [2]); 73.7 ± 2.8 µM in experiment [1] (coupled enzymatic analysis, 37° C., other substrate fixed saturating, read-out: Km, Phospho-HGFR); 78.6 ± 12.1 µM at pHGFR (radioactive filtermate format, dephosphorylated α-casein phosphoacceptor, read-out: Km for ATP (radioactive filtermate format)). In addition, at unphosphorylated HGFR (setting [2]), the “kcat, Unphosphorylated HGFR” value turned out to be 1.02 ± 0.013 s⁻¹. The “kcat, Phospho-HGFR” value in experiment [1] (setting [2]) was 31.3 ± 2.1 s⁻¹.
On to `O=C1Nc2ccc3ncsc3c2/C1=C/Nc1ccc(S(=O)(=O)NCCOCCO)cc1` [Compound 1, 4-[[(Z)-(6,7-dihydro-7-oxo-8H-pyrrolo[2,3-g]benzothiazol-8-ylidene)methyl]amino]-N-[2-(2-hydroxyethoxy)ethyl]-(9CI)], for which the Ki on unphosphorylated HGFR (coupled enzymatic format, 0.375 mM ATP, data fit to equation for competitive inhibition, read-out: inhibition (HGFR/CE format)) was found to be 0.5 ± 0.03 µM; in experiment [1] (coupled enzymatic format, 0.075 mM ATP, data fit to equation for competitive inhibition, read-out: inhibition (pHGFR/CE format)), 0.381 ± 0.019 µM; on pHGFR (radioactive filterplate format, 27.5 nM pHGFR, 0.075 mM ATP, RT, 30 min, read-out: inhibition (pHGFR/radioactive format)), 0.128 ± 0.017 µM. Moreover, the “mechanism of pHGFR inhibition (double reciprocal analysis)” value in experiment [1] (CE assay, ATP 25-3200 μM, Compound 1 0-1200 nM, pHGFR 25 nM, Met2 peptide 0.5 mM) was “ATP-competitive inhibitor”.

Values taken from US20040009568A1, “Catalytic domains of the human hepatocyte growth factor receptor tyrosine kinase, and materials and methods for identification of inhibitors thereof” (priority 2001, published 2004).
